Measurements reported in patent publication US8580941B2, “Epididymal lipocalin gene and uses thereof” (Vanderbilt University, priority 2000, dated 2013).

System: mEP17 protein
Assay: Regulation of mEP17 protein expression (Western blotting and immunohistochemistry) in treated mice
Format: in vivo, mouse
Source text: The regulation of mEP17 protein expression was investigated using Western blotting and immunohistochemistry in castrated mice, castrated testosterone supplemented mice, unilateral castrated mice, unilateral cryptorchid mice, and busulphan-treated mice. As previously observed at the mRNA level (FIGS. 15A-15C), mEP17 protein disappeared from the initial segment two days after bilateral castration and was not restored by testosterone treatment. Similarly, after unilateral castration, mEP17 protein disappeared from the castrated side, but not from the non-castrated side.
To determine whether germ cell-associated testicular factors can regulate mEP17, spermatogenesis was disrupted using cryptorchidism or busulphan treatment. One month following cryptorchidism, mEP17 protein was not detected in the initial segment of the cryptorchid epididymis but was detected at normal levels in the scrotal epididymis. In cryptorchidism, the testis and the epididymis are exposed to abdominal temperature. To distinguish the effects of abdominal temperature on the testis or epididymis, spermatogenesis was also disrupted by busulphan treatment.

Compound	level of mEP17 protein compared to untreated controls (busulphan-treated mice, following a 35-day treatment (disruption of spermatogenesis))	mEP17 protein in the initial segment of the epididymis after testosterone treatment (castrated testosterone supplemented mice, protein disappeared two days after bilateral castration)
CS(=O)(=O)OCCCCOS(C)(=O)=O [busulphan]	drastically reduced	
C[C@]12CC[C@H]3[C@@H](CCC4=CC(=O)CC[C@@]43C)[C@@H]1CC[C@@H]2O [testosterone]		not restored
